The results in this text go back to ChEMBL document CHEMBL1134478, “Recent developments in the biology and medicinal chemistry of potassium channel modulators: update from a decade of progress” (J Med Chem, 2001).

The species named for assay [1] is Rattus norvegicus. Kind of assay: Antagonistic activity (pKb) was measured in the rat thoracic aorta. The format is functional.
Assay [2] is filed under the species Rattus norvegicus. In words: The effective concentration (EC25) was measured for anti-ischemic activity on perfused rat hearts. The format is functional.
Assay [3] in a line: EC25 and IC50 Ratio of the compound. It is filed as functional. Details: reference not given here.
Assay [4] is filed under the species Rattus norvegicus. In words: The effective dose for relaxation was measured on rat aorta rings. The format is functional. To be noted: read-out: ED50 (the source's name).
For assay [5], the species on record is Rattus norvegicus. In words: The percentage of residual insulin release at 50 uM of compound in the presence of glucose on rat pancreatic beta cells. The format is functional.
Assay [6] can be described thus: In vitro reduction of glutamate release in hippocampal slices. It is filed as functional, tissue-based. Particulars: Rattus norvegicus, Hippocampus.
Assay [7] addresses T1, Potassium voltage-gated channel subfamily A member 5 (Homo sapiens, UniProt P22460). Kind of assay: (§1) Inhibition of voltage-gated potassium channel subunit Kv1.5.
In assay [8] the target is T1, Potassium voltage-gated channel subfamily A member 5. In words: The inhibitory concentration for 50% was measured on cation flux.
The species named for assay [9] is Rattus norvegicus. Kind of assay: The effective concentration was measured on rat aorta strips. It is filed as functional.
Assay [10] has as its target T2, Sulfonylurea receptor 2, Kir6.2 (Homo sapiens, UniProt O60706+Q14654). In words: (§2) Inhibition of SUR2B/Kir6.2. The format is protein-complex assay, Rattus norvegicus.
The target of assay [11] is T2, Sulfonylurea receptor 2, Kir6.2. The description is as §2. The format is protein-complex assay.
Assay [12] is filed under the species Rattus norvegicus. In words: The inhibitory concentration for 50% was measured on rat aorta strips. It is filed as functional.
Assay [13] addresses T3, Small conductance calcium-activated potassium channel protein 1 (Homo sapiens, UniProt Q92952). In words: Inhibition of hSK1 calcium activated potassium channel (SKCa channel); Range is 1-2.
Assay [14] has as its target T1, Potassium voltage-gated channel subfamily A member 5. The assay is described as §1. The format is functional.
The nature of assay [15]: Inhibition of glyburide binding to K-ATP potassium channel; Inactive.
The species named for assay [16] is Rattus norvegicus. In words: The inhibitory concentration (IC50) for vasorelaxation on rat aorta. The format is functional.
The species entered for assay [17] is Cavia porcellus. Kind of assay: Relaxation of guinea pig bladder strips when contracted with 20 mM KCl. The format is functional.
For assay [18], the species on record is Cavia porcellus. Kind of assay: The inhibitory concentration for 50% was measured on guinea pig bladder strips. It is filed as functional.
For assay [19], the species on record is Cavia porcellus. Kind of assay: The inhibitory concentration of compound on guinea pig bladder strips. It is filed as functional.
For assay [20], the species on record is Cavia porcellus. In words: The inhibitory concentration of compound on guinea pig portal vein. The format is functional.
In assay [21] the target is Sulfonylurea receptor 1, Kir6.2 (Homo sapiens, UniProt Q09428+Q14654). Kind of assay: Inhibition of human SUR1/Kir6.2 expressed in CHO cells. It is filed as cell-based.
Assay [22] is filed under the species Cavia porcellus. In words: The inhibitory concentration for 50% was measured on guinea pig cardiomyocytes. The format is functional.
Assay [23] is described as follows: The inhibitory concentration for 50% was measured on the rat insulinoma cell line RIN-m5F. It is filed as functional.
Assay [24] addresses T2, Sulfonylurea receptor 2, Kir6.2. Kind of assay: Inhibition of human SUR2A/Kir6.2 expressed in Xenopus oocytes. It is filed as cell-based, Oocyte.
For assay [25], the target named is Voltage-gated potassium channel, IKs; KCNQ1(Kv7.1)/KCNE1(MinK) (Homo sapiens, UniProt P15382+P51787). In words: Inhibition of Iks current KvLQT1 potassium channel. The format is protein-complex assay.
Voltage-gated potassium channel, IKs; KCNQ1(Kv7.1)/KCNE1(MinK), sequence (P51787 whole entry): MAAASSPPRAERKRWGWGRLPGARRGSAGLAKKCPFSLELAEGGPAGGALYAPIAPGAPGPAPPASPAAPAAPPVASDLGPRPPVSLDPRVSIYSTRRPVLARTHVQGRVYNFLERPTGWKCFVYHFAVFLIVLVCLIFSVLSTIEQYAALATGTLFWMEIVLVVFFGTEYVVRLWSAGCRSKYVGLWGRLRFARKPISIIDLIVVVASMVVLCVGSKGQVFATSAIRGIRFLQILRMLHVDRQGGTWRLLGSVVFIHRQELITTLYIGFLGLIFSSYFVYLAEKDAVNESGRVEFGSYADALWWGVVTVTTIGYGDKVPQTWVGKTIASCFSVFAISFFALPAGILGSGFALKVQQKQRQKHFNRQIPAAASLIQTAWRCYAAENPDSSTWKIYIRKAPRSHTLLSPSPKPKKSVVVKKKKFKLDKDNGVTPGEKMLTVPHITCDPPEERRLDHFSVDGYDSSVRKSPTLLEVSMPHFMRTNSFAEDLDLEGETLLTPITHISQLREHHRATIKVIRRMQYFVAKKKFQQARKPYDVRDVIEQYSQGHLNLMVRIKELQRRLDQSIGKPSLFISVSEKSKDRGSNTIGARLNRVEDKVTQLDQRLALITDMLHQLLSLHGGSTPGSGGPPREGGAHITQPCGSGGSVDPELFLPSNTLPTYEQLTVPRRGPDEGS
Assay [26] deals with Gardos channel, KCNN4/IK1 (Homo sapiens). Kind of assay: Selectivity for gardos channel; (Gardos channel vs 2000 nM for the cardiac IKs channel).).
The species entered for assay [27] is Rattus norvegicus. In words: Antagonistic activity in the rat thoracic aorta. It is filed as functional.
Assay [28] can be described thus: Inhibition of currents and prolonged action potential duration in human atrial myocytes. It is filed as functional, Cardiac atrium.
Assay [29] is filed under the species Rattus norvegicus. In words: In vitro inhibitory concentration for 50% vasorelaxant effect was measured on rat aorta strips. It is filed as functional.
A short description of assay [30]: Inhibition of Kir6.1/SUR1 potassium channel K-ATP. Also noted: species or system Homo sapiens.
The species entered for assay [31] is Rattus norvegicus. Kind of assay: The inhibitory concentration was measured on the rat insulinoma cell line RIN-m5F. The format is functional.
Assay [32] is filed under the species Cavia porcellus. In words: The inhibitory concentration was measured on guinea pig cardiomyocytes. The format is functional.
The species named for assay [33] is Cavia porcellus. In words: The effective dose to inhibit 20% was measured on guinea pig. The format is functional.
The species named for assay [34] is Cavia porcellus. In words: The effective dose to inhibit 50% was measured on guinea pig. It is filed as functional.
For assay [35], the target named is T3, Small conductance calcium-activated potassium channel protein 1. In words: Inhibition of hSK1 calcium activated potassium channel (SKCa channel).
Assay [36] can be described thus: Inhibition of glyburide binding to K-ATP potassium channel.

Calls of active or inactive are those of the source. The calls are words filed in the database; no cut-off is given here.

T1 sequence (P22460 whole entry): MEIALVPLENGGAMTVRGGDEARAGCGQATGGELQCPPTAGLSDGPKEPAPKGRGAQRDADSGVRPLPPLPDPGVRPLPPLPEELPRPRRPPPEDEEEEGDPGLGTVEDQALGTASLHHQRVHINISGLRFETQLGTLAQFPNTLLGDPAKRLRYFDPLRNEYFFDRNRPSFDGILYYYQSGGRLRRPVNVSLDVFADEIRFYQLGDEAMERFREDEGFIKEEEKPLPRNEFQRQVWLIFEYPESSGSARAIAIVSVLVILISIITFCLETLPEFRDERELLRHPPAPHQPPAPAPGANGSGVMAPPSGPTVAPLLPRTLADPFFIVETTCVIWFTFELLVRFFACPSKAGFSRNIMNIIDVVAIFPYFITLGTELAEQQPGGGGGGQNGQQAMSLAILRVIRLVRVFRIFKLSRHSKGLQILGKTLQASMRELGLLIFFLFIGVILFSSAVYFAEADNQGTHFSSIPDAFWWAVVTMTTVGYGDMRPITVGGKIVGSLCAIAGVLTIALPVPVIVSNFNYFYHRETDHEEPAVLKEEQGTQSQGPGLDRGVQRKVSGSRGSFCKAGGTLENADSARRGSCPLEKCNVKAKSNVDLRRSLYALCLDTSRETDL
T2 sequence (Q14654 whole entry): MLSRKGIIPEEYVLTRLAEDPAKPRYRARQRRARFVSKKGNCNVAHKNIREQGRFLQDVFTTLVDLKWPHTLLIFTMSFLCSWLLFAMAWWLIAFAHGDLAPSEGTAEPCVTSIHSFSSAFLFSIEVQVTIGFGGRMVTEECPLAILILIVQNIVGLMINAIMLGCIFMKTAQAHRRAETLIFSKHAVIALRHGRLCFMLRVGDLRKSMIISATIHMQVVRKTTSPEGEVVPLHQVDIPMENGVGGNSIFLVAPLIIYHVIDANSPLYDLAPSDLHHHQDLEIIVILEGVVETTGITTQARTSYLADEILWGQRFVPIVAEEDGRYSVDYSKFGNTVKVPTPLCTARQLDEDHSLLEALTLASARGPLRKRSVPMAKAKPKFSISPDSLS
T2 sequence (O60706 whole entry): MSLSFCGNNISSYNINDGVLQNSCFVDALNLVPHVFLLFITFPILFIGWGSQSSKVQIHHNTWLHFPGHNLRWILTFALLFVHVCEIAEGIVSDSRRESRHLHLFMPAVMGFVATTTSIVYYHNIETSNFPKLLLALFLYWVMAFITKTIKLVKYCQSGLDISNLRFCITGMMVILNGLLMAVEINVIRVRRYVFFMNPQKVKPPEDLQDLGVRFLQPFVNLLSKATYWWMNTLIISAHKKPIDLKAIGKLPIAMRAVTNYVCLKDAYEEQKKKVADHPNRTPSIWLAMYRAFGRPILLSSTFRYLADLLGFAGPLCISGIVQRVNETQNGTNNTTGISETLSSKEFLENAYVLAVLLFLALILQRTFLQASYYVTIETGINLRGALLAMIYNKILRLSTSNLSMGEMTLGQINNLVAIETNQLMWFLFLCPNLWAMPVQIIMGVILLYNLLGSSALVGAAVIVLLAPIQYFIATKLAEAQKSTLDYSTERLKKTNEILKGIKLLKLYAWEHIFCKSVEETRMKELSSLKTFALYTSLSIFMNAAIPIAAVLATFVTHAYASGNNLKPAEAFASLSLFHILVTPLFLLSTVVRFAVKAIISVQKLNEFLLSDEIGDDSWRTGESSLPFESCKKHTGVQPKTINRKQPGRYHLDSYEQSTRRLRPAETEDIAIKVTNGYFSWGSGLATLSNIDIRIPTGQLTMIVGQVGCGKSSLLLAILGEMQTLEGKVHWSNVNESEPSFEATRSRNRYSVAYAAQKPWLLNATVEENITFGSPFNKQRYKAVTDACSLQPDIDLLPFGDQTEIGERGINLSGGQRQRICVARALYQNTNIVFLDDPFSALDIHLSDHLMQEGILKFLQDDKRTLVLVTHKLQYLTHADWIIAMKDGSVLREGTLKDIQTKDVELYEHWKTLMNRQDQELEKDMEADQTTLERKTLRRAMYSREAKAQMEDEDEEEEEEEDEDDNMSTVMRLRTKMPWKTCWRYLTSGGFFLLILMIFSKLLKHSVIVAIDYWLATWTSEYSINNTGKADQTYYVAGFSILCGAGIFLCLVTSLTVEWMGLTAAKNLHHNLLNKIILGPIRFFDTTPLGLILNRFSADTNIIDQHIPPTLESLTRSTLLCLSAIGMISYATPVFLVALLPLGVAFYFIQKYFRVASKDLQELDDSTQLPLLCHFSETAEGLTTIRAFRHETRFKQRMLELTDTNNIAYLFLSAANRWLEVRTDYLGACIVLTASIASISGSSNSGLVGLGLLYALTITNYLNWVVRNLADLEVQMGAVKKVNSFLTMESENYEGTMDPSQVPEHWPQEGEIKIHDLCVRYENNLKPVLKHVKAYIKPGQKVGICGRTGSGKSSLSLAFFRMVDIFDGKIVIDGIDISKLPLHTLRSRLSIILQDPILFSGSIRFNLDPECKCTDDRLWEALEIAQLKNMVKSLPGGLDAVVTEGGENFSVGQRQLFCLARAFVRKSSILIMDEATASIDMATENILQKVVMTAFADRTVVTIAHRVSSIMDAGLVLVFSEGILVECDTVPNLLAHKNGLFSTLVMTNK
T3 sequence (Q92952 whole entry): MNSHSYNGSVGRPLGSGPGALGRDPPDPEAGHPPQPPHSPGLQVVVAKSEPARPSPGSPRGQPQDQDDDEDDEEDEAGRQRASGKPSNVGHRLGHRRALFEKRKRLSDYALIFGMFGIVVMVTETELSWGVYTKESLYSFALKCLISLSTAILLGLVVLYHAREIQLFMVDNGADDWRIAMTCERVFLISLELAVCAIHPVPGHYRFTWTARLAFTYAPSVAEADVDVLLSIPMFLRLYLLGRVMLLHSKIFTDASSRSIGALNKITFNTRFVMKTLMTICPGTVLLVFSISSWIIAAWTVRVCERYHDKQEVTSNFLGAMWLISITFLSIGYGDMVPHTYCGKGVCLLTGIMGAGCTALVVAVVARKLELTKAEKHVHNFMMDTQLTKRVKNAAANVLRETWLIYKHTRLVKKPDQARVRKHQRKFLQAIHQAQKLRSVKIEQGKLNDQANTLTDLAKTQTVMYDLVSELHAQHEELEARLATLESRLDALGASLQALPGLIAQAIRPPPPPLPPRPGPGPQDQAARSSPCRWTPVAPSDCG

By pKb is commonly meant the negative decadic logarithm of the Kb, by convention in mol/L. In the assay filed under Rattus norvegicus [1], `Fc1ccc(CN(C2=NCCN2)c2c(Cl)cccc2Cl)cc1` gave a pKb of 7.1. A word on the EC25: it is the point of the concentration-response curve where the effect stands at 25%. In the assay listed under Rattus norvegicus [2], `CC(C)CN(CC(C)C)S(=O)(=O)c1ccc2c(c1)[C@@H](/N=C(\NC#N)Nc1ccc(Cl)cc1)[C@H](O)C(C)(C)O2` returned an EC25 of 0.04 µM. Besides, the Ratio in assay [3] was less than 0.004. Take `CC1=Nc2ccc(Cl)cc2S(=O)(=O)N1` [DIAZOXIDE]: in the assay filed under Rattus norvegicus [4], the EC50 amounted to 19.3 µM. Moreover, in the assay filed under Rattus norvegicus [5], the Insulin release is 28.8%.

One may read the IC50 as the concentration that inhibits the measured activity by half. `COc1ccc(Cl)cc1[C@]1(F)C(=O)Nc2cc(C(F)(F)F)ccc21` [FLINDOKALNER]: the IC50 in assay [6] turned out to be 0.352 µM. With `CCCCc1ccc(S(=O)(=O)N[C@@H]2c3cc(NC(=O)c4cccc(OC)c4)ccc3CC[C@H]2O)cc1`, the IC50 in assay [7] is roughly 0.05 µM; in assay [8], roughly 2.9 µM. The Kd is the constant that tells how readily two partners part at equilibrium. The compound `CNC(=S)C1(C(=O)c2ccc(-n3ccnc3)cc2)CCC1` came in with an EC50 in the assay filed under Rattus norvegicus [9] of 5.3 µM. For the same compound, the Kd in assay [10] was 5.2 µM; in [11], 8.5 µM. The compound also registered an IC50 in the assay listed under Rattus norvegicus [12] of 12 µM.

With `c1ccc2c(c1)c1cc[n+]2CCCCC[n+]2ccc(c3ccccc32)NCCCCCN1`, the IC50 in [13] is 0.001 µM. `O=C1NCCN1CCN1CCC(c2cn(-c3ccc(F)cc3)c3ccc(Cl)cc23)CC1` [SERTINDOLE] had a half-inhibitory concentration (IC50) in assay [14] of 2 µM. With `C[C@@H](N/C(=N/C#N)Nc1cccnc1)c1ccccc1`, in assay [15], the NA entry is “inactive”. `CC1(C)Oc2ccc(C#N)cc2[C@H](N2CCCC2=O)[C@H]1O` [(-)-CROMAKALIM] had an EC25 in the assay filed under Rattus norvegicus [2] of 8.9 µM. Further, the Ratio in assay [3] was 278. The same compound registered an IC50 in the assay listed under Rattus norvegicus [16] of 0.032 µM.

Regarding `CC[C@@H](N/C(=N/C#N)Nc1cccnc1)c1ccccc1`, in assay [15], the NA entry is “inactive”. Regarding `CC(NC1=NS(=O)(=O)c2cccnc2N1)C(C)(C)C` (stereo not drawn), the EC50 in the assay filed under Rattus norvegicus [4] came to 7.5 µM. Further, the Insulin release in the assay filed under Rattus norvegicus [5] is reported as 98.9%. For `CC(NC1=NS(=O)(=O)c2cc(Cl)cnc2N1)C(C)(C)C` (stereo not drawn), in that order: 2.3 µM and 41.5%. Turning to `Cc1c(-c2ccccc2F)[nH]c(N)c1C#N`, the IC50 in the assay filed under Cavia porcellus [17] was 0.54 µM. For `C[C@](O)(C(=O)Nc1cccc2c1C(=O)c1sccc1CS2(=O)=O)C(F)(F)F`, the IC50 in the assay listed under Cavia porcellus [18] was found to be 2.5 µM. `N#Cc1cccc(C2C3=C(CCCC3=O)NC3=C2C(=O)CCC3)c1`: the half-maximal inhibitory concentration (IC50) amounted to 4.2 µM in the assay listed under Cavia porcellus [19] and 0.75 µM in the assay filed under Cavia porcellus [20]. In the case of `CNC(=S)NS(=O)(=O)c1cc(CCNC(=O)c2cc(Cl)ccc2OC)ccc1OC` [CLAMIKALANT], the IC50 in assay [21] amounted to 8.2 µM; in the assay listed under Cavia porcellus [22], 0.8 µM; in assay [23] it was 7.5 µM; in [24], 4.3 µM. Regarding `NC(=O)C(c1ccccc1)(c1ccc(F)cc1)c1ccccc1F` (stereo not drawn), the IC50 worked out at 2 µM in assay [25] and 0.009 µM in assay [26]. Compound `CC1(C)Oc2ccc(C#N)cc2[C@@H](/N=C(\NC#N)Nc2ccc(Cl)cc2)[C@@H]1O` registered an EC25 in the assay filed under Rattus norvegicus [2] of 2.5 µM. For the same compound, in [3], the Ratio was found to be 1.4.

In the assay listed under Rattus norvegicus [27], `C=CCN(C1=NCCN1)c1c(Cl)cccc1Cl` [ALINIDINE] registered a pKb of 5.5. As usually defined, the Inhibition is the drop in the measured response relative to a control, in per cent. Turning to `CCc1ccc(S(=O)(=O)N[C@@H]2c3cc(NC(=O)c4cccc(OC)c4)ccc3C[C@H]2O)cc1`, the Inhibition in assay [28] was greater than 50%. For the same compound, inhibition in assay [7] was half-maximal at 0.1 µM (IC50). Regarding `CC(O)(C(=O)Nc1cccc2c1C(=O)c1sccc1CO2)C(F)(F)F` (stereo not drawn), inhibition in the assay listed under Cavia porcellus [18] was half-maximal at 2.1 µM (IC50). In the case of `CC(NC1=NS(=O)(=O)c2cnccc2N1)C(C)(C)C` (stereo not drawn), the EC50 in the assay filed under Rattus norvegicus [4] is 154 µM. Besides, the Insulin release in the assay filed under Rattus norvegicus [5] is given as 7.1%.

In turn, `CC(C)(C)O/N=C(\c1cc(Br)c(F)cc1O)c1c(O)ccc[n+]1[O-]` showed an IC50 in the assay filed under Rattus norvegicus [29] of 0.28 µM.

`CC1(C)Oc2ccc(C#N)cc2[C@H](N(Cc2ncc[nH]2)c2ccc(Cl)cc2)[C@H]1O` [BMS-191095]: the EC25 in the assay filed under Rattus norvegicus [2] came to 1.4 µM. Besides, in assay [3], the Ratio was less than 0.05. In the assay listed under Rattus norvegicus [16], this compound came in with an IC50 greater than 30 µM. `C1CCC(/N=C(\NC23CC4CC(CC(C4)C2)C3)N2CCOCC2)CC1` displayed an IC50 in [30] of 32 µM.

For `COc1ccc(Cl)cc1C(=O)NCCc1ccc(S(=O)(=O)NC(=O)NC2CCCCC2)cc1` [GLYBURIDE], the IC50 in the assay filed under Rattus norvegicus [31] was 0.0016 µM; in the assay listed under Cavia porcellus [32] it was 0.008 µM; in [24], 0.22 µM. As usually defined, the ED50 is the dose that gives a 50% effect, or the effect in half of the subjects. As for `Cc1cc(-c2ccc3c(c2)[C@@H](NC(=O)c2cccnc2)[C@H](O)C(C)(C)O3)ccn1`, the ED20 in the assay filed under Cavia porcellus [33] worked out at 100 µg/kg. The same compound gave an ED50 in the assay listed under Cavia porcellus [34] of 0.08 µg/kg.

As to `c1cc2cc(c1)C[n+]1ccc(c3ccccc31)NCc1ccc(cc1)CNc1cc[n+](c3ccccc13)C2`, the IC50 in [35] is 0.003 µM.

`N#C/N=C(\Nc1cccnc1)NC1(c2cccc(Cl)c2)CCC1`: the IC50 in [36] came out at 0.018 µM.
